Source: patent US20100251436A1, “METHOD FOR GROWING SUGARCANE” (SYNGENTA CROP PROTECTION, INC., priority 2007, published 2010)

Test system: sugar cane Variety RB 86-7515
Assay: Greenhouse pot test of formulated agrochemicals on vigour (tillers, plant height, leaf width, culm diameter)
Conditions: for number of tillers in comparison with the control / plant height in comparison with the control: greenhouse, rate of the respective example
Excerpt: 1) carretel with one bud treated with abamectin 2) carretel with one bud treated with abamectin+15% v/v of polymer 3) stalk with 3 buds untreated 4) carretel with one bud untreated 5) carretel with one bud untreated+15% v/v of polymer 6) stalk with 3 buds treated with abamectin.
Twenty 1 L pots were filled with 16 L of clay soil, 1.6 L of sand and 8 g of nitrogen, 28 g of phosphorus (P2O5) and 16 g of potassium (K2O). Six carretels of 4 cm length with only one bud were planted in each pot (treatments 1, 2, 4 and 5). Two stalks with three buds were planted in each control pot (treatments 3 and 6) to simulate conventional planting. A layer of 3 cm of soil was used to cover the carretels. […] The stalks were treated simulating a furrow application at 100 L.ha^−1 of slurry. Experimental design adopted was randomized complete block with four replications. The pots were maintained with adequate moisture during the test. Evaluations of: plant height, leaf width, culm diameter and number of tillers were done at 20, 30 and 42 days after planting.

| Molecule | number of tillers in comparison with the control (result in words) | plant height in comparison with the control (result in words) | increase in "quality" (result in words, not apparent from the measured parameters) | Tillers (abamectin 100 g ai/ha, carretel with one bud, dipped in slurry 3 min, 42 days after planting) [number] |
| --- | --- | --- | --- | --- |
| CN/C(=N\[N+](=O)[O-])NCc1cnc(Cl)s1 [Clothianidin, clothianidin] | increased | slight reduction | – | – |
| N#Cc1nn(-c2c(Cl)cc(C(F)(F)F)cc2Cl)c(N)c1[S+]([O-])C(F)(F)F (centres unmarked) [Fipronil, fipronil] | increased | decreased | – | – |
| O=[N+]([O-])NC1=NCCN1Cc1ccc(Cl)nc1 [Imidacloprid] | increase | – | – | – |
| CN1COCN(Cc2cnc(Cl)s2)/C1=N\[N+](=O)[O-] [Thiamethoxam, thiamethoxam] | increased | reduced | greater than the other treatments | – |
| abamectin | increase | decrease | – | 14 |
